Tests used:
[1] = biological target: T1, Phospholipase A2, membrane associated (Homo sapiens, UniProt P14555); test: Inhibition of Human Nonpancreatic Secretory Phospholipase A2 through Chromogenic assay; assay type: functional
T1 sequence (P14555 whole entry): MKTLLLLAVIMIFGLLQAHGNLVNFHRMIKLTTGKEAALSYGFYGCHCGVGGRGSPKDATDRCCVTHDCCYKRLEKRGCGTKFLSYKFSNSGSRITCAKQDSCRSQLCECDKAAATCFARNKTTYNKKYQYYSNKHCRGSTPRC

[2] = biological target: T2, Phospholipase A2, membrane associated (Homo sapiens) (UniProt P14555); test: Inhibition of PLA2 induced contraction of GP lung tissue (Guinea pig) (n=4); assay type: functional, tissue-based; conditions: Cavia porcellus, target entry is the homologue from another species
T2 sequence (whole entry): T1 sequence (P14555 whole entry)

[3] = species: Cavia porcellus; test: Inhibition of AA (arachidonic acid) - induced contraction of GP lung tissue (n=4).; assay type: functional
[4] = biological target: T2, Phospholipase A2, membrane associated (Homo sapiens); test: Mole fraction as PLA2 IC50 concentration divided by total lipid concentration (1230 uM); assay type: functional
[5] = biological target: T2, Phospholipase A2, membrane associated (Homo sapiens); test: Inhibition of Human Nonpancreatic Secretory PLA2 through Chromogenic assay at 47ug/mL; assay type: functional

COc1ccc2c(c1)c(CC(=O)NN)c(SC)n2Cc1ccccc1
IC50 [1]: 0.62 µM

COc1ccc2c(c1)c(CC(=O)NN)c(C)n2Cc1ccccc1-c1ccccc1
Kb [2]: > 10 µM | ED50 [3]: >10 µM

COc1ccc2c(c1)c(CC(N)=O)c(C)n2C(=O)c1ccccc1
IC50 [1]: 7.21 µM

COc1ccc2c(C(O)C(N)=O)c(C)n(Cc3ccccc3)c2c1 (stereo unspecified)
IC50 [1]: 121 µM

CCCCCCCCCCn1c(C)c(CC(=O)NN)c2cc(OC)ccc21
IC50 [1]: 9.43 µM

CCc1c(CC(N)=O)c2cc(OC)ccc2n1Cc1ccccc1
Kb [2]: 5.91 µM | ED50 [3]: >30 µM

COc1ccc2c(c1)c(CC(N)=O)c(C)n2CCCc1ccccc1
IC50 [1]: 11.1 µM

COc1ccc2c(C(=O)C(N)=O)c(C)n(Cc3ccccc3)c2c1
IC50 [1]: 1.77 µM

Cc1c(CC(N)=O)c2cc(N)ccc2n1Cc1ccccc1
Kb [2]: 1.98 µM | ED50 [3]: 14.5 µM

COc1ccc2c(c1)c(C(O)C(N)=O)c(C)n2Cc1ccccc1 (stereo unspecified)
IC50 [1]: 20.1 µM

CCc1c(CC(=O)NN)c2cc(OC)ccc2n1Cc1ccccc1
Kb [2]: 2.04 µM | ED50 [3]: >30 µM

CONC(=O)Cc1c(C)n(Cc2ccccc2)c2ccc(OC)cc12
IC50 [1]: 40 µM

Cc1c(CC(=O)NN)c2cc(C(=O)O)ccc2n1Cc1cccc(Cl)c1
Kb [2]: 1.39 µM | ED50 [3]: >30 µM

COc1ccc2c(c1)c(CCC(N)=O)c(C)n2Cc1ccccc1
IC50 [1]: 28.1 µM

COc1ccc2c(c1)c(CC(N)=O)c(SC)n2Cc1ccccc1
IC50 [1]: 0.45 µM | Kb [2]: 7.93 µM

Cc1c(CC(=O)NN)c2ccccc2n1-c1ccccc1
IC50 [1]: 38.2 µM

COc1cccc2c1c(CC(=O)NN)c(C)n2Cc1cccc(Cl)c1
IC50 [1]: 0.23 µM

CNC(=O)Cc1c(C)n(Cc2ccccc2)c2ccc(OC)cc12
IC50 [1]: 142 µM

COc1ccc2c(c1)c(CC(=O)NN)cn2Cc1ccccc1
IC50 [1]: 4.9 µM | Kb [2]: 5.64 µM | ED50 [3]: >10 µM

CCCc1c(CC(=O)NN)c2cc(OC)ccc2n1Cc1ccccc1
Kb [2]: 27.1 µM | ED50 [3]: >30 µM

COc1ccc2c(c1)c(CC(=O)NN)c(C)n2Cc1cccc(Cl)c1
IC50 [1]: 1.36 µM | Kb [2]: 1.13 µM | ED50 [3]: >30 µM

CCc1c(C(=O)C(N)=O)c2c(OC)cccc2n1Cc1ccccc1
IC50 [1]: 0.55 µM

COc1ccc2c(c1)c(CC#N)c(C)n2Cc1ccccc1
Mole fraction [4]: Mole fraction as PLA2 IC50 concentration divided by total lipid concentration (1230 uM) | inhibition [5]: 45%

COc1cccc2c1c(CC(=O)NN)c(C)n2Cc1ccccc1
IC50 [1]: 0.55 µM

CCCCCCC(C(=O)NN)c1c(C)n(Cc2ccccc2)c2ccc(OC)cc12 (stereo unspecified)
IC50 [1]: 101 µM

COc1cccc(Cn2c(C)c(CC(=O)NN)c3cc(OC)ccc32)c1
IC50 [1]: 2.12 µM

CCc1c(CC(N)=O)c2c(OC)cccc2n1Cc1ccccc1
IC50 [1]: 1.18 µM

COc1ccc2c(c1)c(CC(=O)NN)c(C)n2Cc1cccc(O)c1
Kb [2]: 5.96 µM | ED50 [3]: >30 µM

COc1ccc2c(c1)c(CC(N)=O)c(C)n2CC1CCCCC1
Kb [2]: 22.5 µM | ED50 [3]: 25.65 µM

COC(=O)Cc1c(C)n(Cc2ccccc2)c2ccc(OC)cc12
IC50 [1]: 116 µM

CCc1c(C(O)C(N)=O)c2c(OC)cccc2n1Cc1ccccc1 (stereo unspecified)
IC50 [1]: 53 µM

CCc1c(CC(=O)NN)c2cc(OC)ccc2n1Cc1ccccc1-c1ccccc1
IC50 [1]: 2.35 µM | Kb [2]: 30.1 µM | ED50 [3]: >30 µM

COc1ccc2c(c1)c(C(=O)C(N)=O)c(C)n2Cc1ccccc1
IC50 [1]: 1.23 µM

COc1cccc2c1c(CC(N)=O)c(C)n2Cc1cccc(Cl)c1
IC50 [1]: 1.38 µM

COc1ccc2c(c1)c(CC(=O)NN)c(C)n2Cc1cccc(N)c1
IC50 [1]: 4.32 µM

Cc1c(CC(N)=O)c2cc([N+](=O)[O-])ccc2n1Cc1ccccc1
IC50 [1]: 1.51 µM

COc1ccc2c(c1)c(CC(=O)NN)c(Br)n2Cc1ccccc1
Kb [2]: 0.76 µM | ED50 [3]: 7.32 µM

CCC(C(=O)NN)c1c(C)n(Cc2ccccc2)c2ccc(OC)cc12 (stereo unspecified)
IC50 [1]: 24.2 µM

CCc1c(C(=O)C(N)=O)c2c([N+](=O)[O-])cccc2n1Cc1ccccc1
IC50 [1]: 37.8 µM

COc1ccc2c(c1)c(CC(=O)NN)c(Cl)n2Cc1ccccc1
Kb [2]: 0.85 µM | ED50 [3]: 9.37 µM

COc1ccc2c(c1)c(C(C)C(=O)NN)c(C)n2Cc1ccccc1 (stereo unspecified)
IC50 [1]: 32.6 µM

COc1ccc2c(c1)c(CC(=O)NN)c(C)n2Cc1cccc(-c2ccccc2)c1
Kb [2]: 22.6 µM

COc1ccc2c(c1)c(CC(=N)N)c(C)n2Cc1ccccc1
IC50 [1]: 64.7 µM

CCc1c(C(=O)C(N)=O)c2cc(OC)ccc2n1Cc1ccccc1
IC50 [1]: 2.56 µM

COc1ccc2c(c1)c(CC(=O)NN)c(C1CC1)n2Cc1ccccc1
IC50 [1]: 0.39 µM

COc1ccc2c(c1)c(CC(N)=O)c(C)n2Cc1cccc(Cl)c1
IC50 [1]: 0.91 µM

COc1ccc2c(c1)c(CC(=O)NN)c(C)n2C(c1ccccc1)c1ccccc1
IC50 [1]: 40.2 µM

COc1ccc2c(c1)c(Cc1nnn[nH]1)c(C)n2Cc1ccccc1
IC50 [1]: 84.7 µM

COc1ccc2c(c1)c(CC(=N)S)c(C)n2Cc1ccccc1
IC50 [1]: 74.1 µM

COc1ccc2c(c1)c(CC(=O)NN)c(C)n2Cc1cccc(OCc2ccccc2)c1
Kb [2]: 3.86 µM | ED50 [3]: >30 µM

COc1ccc2c(c1)c(CC(=O)O)c(C)n2Cc1ccccc1
IC50 [1]: 13.6 µM

CCCCCCCCCCn1c(C)c(CC(N)=O)c2cc(OC)ccc21
IC50 [1]: 9.47 µM

— ChEMBL document CHEMBL1129457, “Indole inhibitors of human nonpancreatic secretory phospholipase A2. 1. Indole-3-acetamides” (J Med Chem, 1996)
